How the values were obtained:
[1] = target: T1, androgen receptor (AR) (Homo sapiens, UniProt P10275); test: SARD mediated AR degradation (western blot); details: for AR degradation (in words): at the concentrations assayed
T1 sequence (P10275 1-920): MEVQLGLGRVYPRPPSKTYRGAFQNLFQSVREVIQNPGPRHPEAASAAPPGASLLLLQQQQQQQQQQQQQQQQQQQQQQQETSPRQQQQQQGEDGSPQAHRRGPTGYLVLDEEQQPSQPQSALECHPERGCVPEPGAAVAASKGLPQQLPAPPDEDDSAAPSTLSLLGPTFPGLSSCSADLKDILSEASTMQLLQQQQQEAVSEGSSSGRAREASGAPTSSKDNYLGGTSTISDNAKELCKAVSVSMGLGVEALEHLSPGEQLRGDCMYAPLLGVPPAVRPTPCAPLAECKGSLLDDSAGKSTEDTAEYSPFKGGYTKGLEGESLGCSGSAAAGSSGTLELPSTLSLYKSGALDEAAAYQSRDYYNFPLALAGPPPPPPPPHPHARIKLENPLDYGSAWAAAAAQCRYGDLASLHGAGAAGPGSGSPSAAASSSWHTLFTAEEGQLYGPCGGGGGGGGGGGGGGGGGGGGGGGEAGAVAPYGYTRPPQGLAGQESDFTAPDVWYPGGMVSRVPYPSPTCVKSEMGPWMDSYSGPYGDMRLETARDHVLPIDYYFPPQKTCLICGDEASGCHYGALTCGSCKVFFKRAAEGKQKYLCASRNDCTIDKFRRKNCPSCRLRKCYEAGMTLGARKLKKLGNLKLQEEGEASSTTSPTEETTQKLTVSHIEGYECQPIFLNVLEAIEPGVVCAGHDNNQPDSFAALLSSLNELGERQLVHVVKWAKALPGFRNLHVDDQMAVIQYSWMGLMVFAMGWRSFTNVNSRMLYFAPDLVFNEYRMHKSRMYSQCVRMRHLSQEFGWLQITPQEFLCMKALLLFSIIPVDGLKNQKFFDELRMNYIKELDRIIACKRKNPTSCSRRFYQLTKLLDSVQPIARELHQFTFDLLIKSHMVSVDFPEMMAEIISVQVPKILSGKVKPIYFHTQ

[2] = tested on: androgen dependent LnCAP cells; test: Proliferation of androgen dependent LnCAP prostate cancer cells; type: cell-based; details: 1 μM, several days
From the text: (§1) FIG. 26, comprising FIGS. 26A-26C, is a series of graphs illustrating in vitro activity of SARDS compounds. FIG. 26A: effect of SARDS on cell proliferation of LnCAPs. FIG. 26B: effect of SARDS on the proliferation of non-AR dependent cell lines. FIG. 26C: effect of SARDS on androgen independent prostate cancer cells.

[3] = tested on: AR-independent HEK293 cells; test: General cell toxicity in AR-independent HEK293 cells; type: cell-based; details: HEK293, 1 μM, 48 h
Procedure: as §1
(§2) To access general cell toxicity, AR-independent HEK293 and HELA cells were treated with 1 μM SARD 279.

[4] = tested on: AR-independent HELA cells; test: General cell toxicity in AR-independent HELA cells; type: cell-based; details: 1 μM, 48 h
Procedure: as §1, §2

In the case of `CC1(C)C(=O)N(c2ccc(C#N)c(C(F)(F)F)c2)C(=S)N1CCCCO` [RU 59063, 4-[3-(4-hydroxybutyl)-4,4-dimethyl-5-oxo-2-thioxoimidazolidin-1-yl]-2-(trifluoromethyl)benzonitrile, reference compound], the “AR degradation (in words)” value [1] is reported as “no degradation was detected”.
`CC1(C)C(=O)N(c2ccc(C#N)c(C(F)(F)F)c2)C(=S)N1CCCC(=O)NCCOCCOCCOCCOC12CC3CC(CC(C3)C1)C2` [SARD 033, N-(2-(2-(2-(2-(Adamantan-1-yloxy)ethoxy)ethoxy)ethoxy)ethyl)-4-(3-(4-cyano-3-(trifluoromethyl)phenyl)-5,5-dimethyl-4-oxo-2-thioxoimidazolidin-1-yl)butanamide] was tested, and the “Cell growth / proliferation of LnCAP cells” value [2] was “significantly attenuated cell growth”.
With `CC1(C)C(=O)N(c2ccc(C#N)c(C(F)(F)F)c2)C(=S)N1CCCC(=O)NCCOCCOC(=O)CC12CC3CC(CC(C3)C1)C2` [SARD 279, 2-(2-(4-(3-(4-Cyano-3-(trifluoromethyl)phenyl)-5,5-dimethyl-4-oxo-2-thioxoimidazolidin-1-yl)butanamido)ethoxy)ethyl 2-(adamantan-1-yl)acetate] the “Cytotoxicity compared to vehicle” value [3] was “did not display cytotoxic results”, the “Cytotoxicity compared to vehicle” value [4] was “did not display cytotoxic results” and the DC50 ([1]; read-out: DC50 (half maximum degradation concentration) of AR, AR degradation, western blot) was 1000 nM.
In the case of `CCOCCOCCNC(=O)CCCN1C(=S)N(c2ccc(C#N)c(C(F)(F)F)c2)C(=O)C1(C)C` [SARD 280, 4-(3-(4-Cyano-3-(trifluoromethyl)phenyl)-5,5-dimethyl-4-oxo-2-thioxoimidazolidin-1-yl)-N-(2-(2-ethoxyethoxyl)ethyl)butanamide], the “AR degradation (in words)” value [1] is reported as “affected degradation only at higher concentrations and did not achieve complete AR degradation at the concentrations assayed”.
